This passage reports TGI results from PubChem BioAssay (NCI).

In this assay the test system is SN12K1 renal. The experiment in a line: NCI anticancer screen, dose series, 48 h.

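Briefly, cells in 96-well plates were exposed to five compound concentrations for 48 h, and endpoints were estimated by linear interpolation. TGI: concentration producing complete growth inhibition.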

For `O=c1n(CC2CO2)c(=O)n(CC2CO2)c(=O)n1CC1CO1` (stereo unspecified), the TGI is 174 µM.
